The source of these data is patent US20240254066A1, “RESCORCINOLS, METHODS FOR THEIR MANUFACTURE, AND USES THEREOF” (GW Research Limited, priority 2021, published 2024).

The structures appear in SMILES notation. A value given as a limit tells only on which side of the number the result lay.

This data set has as its system tonic hind limb extensor convulsions (mouse model of generalised seizure). The data set can be described thus: mini-MEST (maximal electroshock seizure threshold) test in the mouse. As to conditions: for change in vivo at 5 mg/kg / change in vivo at 50 mg/kg / change in vivo at 25 mg/kg: Mus musculus, ip, change in CC50; for change in vivo at 5 mg/kg: 0.25 h, read-out: % change from vehicle, 5 mg/kg i.p., 15 min post dose; for change in vivo at 50 mg/kg / change in vivo at 25 mg/kg: 0.5 h; for change in vivo at 50 mg/kg: read-out: % change from vehicle, 50 mg/kg i.p., 30 min post dose; for change in vivo at 25 mg/kg: read-out: % change from vehicle, 25 mg/kg i.p., 30 min post dose. Here is the method:
The efficacy of novel resorcinols 2, 3, 5, 8, 10, 15, 16, 17, 18, 19, 41 45, 46, 53, 56 and 58 were tested in a novel mouse model of generalised seizure, the mini-MEST (maximal electroshock seizure threshold) test, which uses lower n numbers than typically used.
The maximal electroshock seizure threshold (MEST) test is widely utilized preclinically to evaluate pro- or anti-convulsant properties of test compounds (Loscher et al., 1991).
In the MEST test the ability of a drug to alter the seizure threshold current required to induce hind limb tonic extensor convulsions is measured according to an “up and down” method of shock titration (Kimball et al., 1957). An increase in seizure threshold is indicative of anti-convulsant effect.
The ability of a test compound to alter the stimulus intensity, expressed as current (mA), required to induce the presence of tonic hind limb extensor convulsions, is assessed in the MEST.
Naïve mice were acclimatised to the procedure room in their home cages for up to 7 days, with food and water available ad libitum.
All animals were weighed at the beginning of the study and randomly assigned to treatment groups based on a mean distribution of body weight across groups.
The first animal within a treatment group was given a shock at the expected or estimated CC50 current. For subsequent animals, the current was lowered or raised depending on the convulsions outcome from the preceding animal in log scale intervals.
Data generated from each treatment group were used to calculate the CC50±SEM values for the treatment group.
Vehicle: (5% ethanol, 10% solutol in 85% Saline) was prepared as follows: 1 mL of ethanol, 2 mL of solutol were warmed to 60° C., in 17 mL of saline (1:2:17).
The test compounds used were 2, 3, 5, 8, 10, 15, 16, 17, 18, 19, 41, 45, 46, 53, 56 and 58 Test compounds were administered at 5-50 mg/kg (i.p.) in a 1:2:17 ethanol:solutol:saline formulation.
Test compound effects were also calculated as percentage change in CC50 from the vehicle control group.
Significant difference between drug-treated animals and controls were assessed according to Litchfield and Wilcoxon (1949).

[1] abbreviates: 5 mg/kg i.p., test 15 min post dose.
Where [2] appears, read: 50 mg/kg i.p., test 30 min post dose.
Where [3] appears, read: 25 mg/kg i.p., test 30 min post dose.

Turning to `C=C(C)[C@@H]1C[C@H](O)C(C)=C[C@H]1c1c(O)cc(-c2ccc3c(c2)OCO3)cc1O` [Compound 41, (1′R,2′R,4′S)-4-(Benzo[d][1,3]dioxol-5-yl)-5′-methyl-2′-(prop-1-en-2-yl)-1′,2′,3′,4′-tetrahydro-[1,1′-biphenyl]-2,4′,6-triol], the change in vivo at 5 mg/kg stood at 91% and the change in vivo at 50 mg/kg is above 394%. For the same compound, the “CC50 +/− SEM” value under setting [1] is recorded as 50.5 ± 0.7 mA. Besides, the “CC50 +/− SEM” value under setting [2] is above 131.0 mA.

`C=C(C)[C@@H]1C[C@H](O)C(C)=C[C@H]1c1c(O)cc(-c2cccc3c2OCO3)cc1O` [Compound 42, (1′R,2′R,4′S)-4-(Benzo[d][1,3]dioxol-4-yl)-5′-methyl-2′-(prop-1-en-2-yl)-1′,2′,3′,4′-tetrahydro-[1,1′-biphenyl]-2,4′,6-triol]: the change in vivo at 50 mg/kg amounted to 457%. Further, the “CC50 +/− SEM” value under setting [2] is above 131.0 mA.

As for `C=C(C)[C@@H]1C[C@H](O)C(C)=C[C@H]1c1c(O)cc(CCC)c(F)c1O` [Compound 45, (1′R,2′R,4′S)-3-fluoro-5′-methyl-2′-(prop-1-en-2-yl)-4-propyl-1′,2′,3′,4′-tetrahydro-[1,1′-biphenyl]-2,4′,6-triol], the change in vivo at 5 mg/kg is 58%. Also, the “CC50 +/− SEM” value under setting [1] is listed as 35.5 +/− 0.5 mA.

Consider `C=C(C)[C@@H]1C[C@H](O)C(C)=C[C@H]1c1c(O)cc(CCC)c(Cl)c1O` [Compound 46, (1′R,2′R,4′S)-3-chloro-5′-methyl-2′-(prop-1-en-2-yl)-4-propyl-1′,2′,3′,4′-tetrahydro-[1,1′-biphenyl]-2,4′,6-triol], for which the change in vivo at 50 mg/kg turned out to be 217%. Moreover, the “CC50 +/− SEM” value under setting [2] came out at 84.0 ± 3.4 mA.

`C=C(C)[C@@H]1C[C@H](O)C(C)=C[C@H]1c1c(O)cc(Br)c(Cl)c1O` [Compound 47, (1′R,2′R,4′S)-4-bromo-3-chloro-5′-methyl-2′-(prop-1-en-2-yl)-1″,2″,3′,4′-tetrahydro-[1,1′-biphenyl]-2,4′,6-triol]: the change in vivo at 25 mg/kg turned out to be 238%. Moreover, under setting [3], the “CC50 +/− SEM” value stood at 79.5 ± 10.0 mA.

In the case of `C=C(C)[C@@H]1C[C@H](O)C(C)=C[C@H]1c1c(O)cc(-c2cccc(OC)c2)c(Cl)c1O` [Compound 49, (1R,2R,4S)-3′-Chloro-3″-methoxy-5-methyl-2-(prop-1-en-2-yl)-1,2,3,4-tetrahydro-[1,1′:4′,1″-terphenyl]-2′,4,6′-triol], the change in vivo at 50 mg/kg came to 244%. For the same compound, under setting [2], the “CC50 +/− SEM” value was found to be 97.5 ± 1.3 mA.

Consider `C=C(C)[C@@H]1C[C@H](O)C(C)=C[C@H]1c1c(O)c(C)c(-c2ccnc(OC)c2)c(C)c1O` [Compound 52, (1′R,2′R,4′S)-4-(2-Methoxypyridin-4-yl)-3,5,5′-trimethyl-2′-(prop-1-en-2-yl)-1′,2′,3′,4′-tetrahydro-[1,1′-biphenyl]-2,4′,6-triol], for which the change in vivo at 5 mg/kg stood at 9% and the change in vivo at 50 mg/kg was found to be 170%. For the same compound, under setting [1], the “CC50 +/− SEM” value came to 31.0 ± 4.5 mA. In addition, under setting [2], the “CC50 +/− SEM” value amounted to 76.5 ± 2.6 mA.

With `C=C(C)[C@@H]1C[C@H](OC)C(C)=C[C@H]1c1c(O)cc(CCC)cc1O` [Compound 53, (1′R,2′R,4′S)-4′-Methoxy-5′-methyl-2′-(prop-1-en-2-yl)-4-propyl-1′,2″,3′,4′-tetrahydro-[1,1′-biphenyl]-2,6-diol], the change in vivo at 25 mg/kg was 29%. For the same compound, the “CC50 +/− SEM” value under setting [3] is given as 29.0 +/− 1.5 mA.

Turning to `C=C(C)[C@@H]1C[C@H](O)C(C)=C[C@H]1c1c(O)cc(-c2ccnc(C(F)(F)F)c2)cc1O` [Compound 58, (1′R,2′R,4′S)-5′-Methyl-2′-(prop-1-en-2-yl)-4-(2-(trifluoromethyl)pyridin-4-yl)-1′,2′,3′,4′-tetrahydro-[1,1′-biphenyl]-2,4′,6-triol], the change in vivo at 50 mg/kg was 234%. Besides, the “CC50 +/− SEM” value under setting [2] amounted to 88.5 ± 1.3 mA.
